These molecules were tested against T1, dihydrolipoamide acyltransferase (DlaT) (Mycobacterium tuberculosis, UniProt P9WIS7) (assay: DlaT inhibition (Dlat IC50); DTNB peroxidase assay with Lpd, DlaT and AhpD). Settings: Dlat IC50 category.
T1 sequence (P9WIS7 1-553): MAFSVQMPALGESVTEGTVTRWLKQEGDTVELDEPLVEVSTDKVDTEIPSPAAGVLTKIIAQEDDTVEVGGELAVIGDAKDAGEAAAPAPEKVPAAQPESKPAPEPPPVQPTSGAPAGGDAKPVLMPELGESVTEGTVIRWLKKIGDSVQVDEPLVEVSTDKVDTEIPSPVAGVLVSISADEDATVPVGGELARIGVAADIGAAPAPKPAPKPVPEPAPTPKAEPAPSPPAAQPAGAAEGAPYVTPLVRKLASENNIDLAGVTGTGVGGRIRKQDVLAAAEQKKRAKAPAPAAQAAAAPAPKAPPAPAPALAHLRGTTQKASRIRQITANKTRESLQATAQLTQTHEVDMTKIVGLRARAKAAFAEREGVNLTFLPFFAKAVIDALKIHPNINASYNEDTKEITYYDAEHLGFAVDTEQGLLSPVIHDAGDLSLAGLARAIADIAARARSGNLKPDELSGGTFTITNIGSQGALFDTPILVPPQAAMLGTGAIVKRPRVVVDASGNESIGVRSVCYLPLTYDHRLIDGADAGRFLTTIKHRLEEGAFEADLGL
Type: biochemical

Row | Structure (SMILES) | IC50 [µM]
1 | COc1ccc(-c2ccc(C=C3SC(=S)N(Nc4ccccc4C(=O)O)C3=O)o2)cc1 [Compound D14, 2-{5-[1-[5-(4-methoxy-phenyl)-furan-2-yl]-methylidene]-4-oxo-2-thioxo-thiazolidin-3-ylamino}-benzoic acid] | < 10
2 | Cc1ccccc1-c1cccc(C=C2SC(=S)N(Nc3ccccc3C(=O)O)C2=O)n1 [Compound D15, 2-[4-Oxo-2-thioxo-5-(6-o-tolyl-pyridin-2-ylmethylene)-thiazolidin-3-ylamino]-benzoic acid] | 11 to 40
3 | O=C(O)c1cccc(NN2C(=O)C(=Cc3ccc(-c4ccccc4Cl)o3)SC2=S)c1 [Compound D16, 3-{5-[1-[5-(2-chloro-phenyl)-furan-2-yl]-methylidene]-4-oxo-2-thioxo-thiazolidin-3-ylamino}-benzoic acid] | < 10
4 | O=C(O)c1cccc(NN2C(=O)C(=Cc3ccc(-c4cccc(C(F)(F)F)c4)o3)SC2=S)c1 [Compound D17, 3-{5-[1-[5-(3-trifluoromethyl-phenyl)-furan-2-yl]-methylidene]-4-oxo-2-thioxo-thiazolidin-3-ylamino}-benzoic acid] | < 10
5 | O=C(O)c1cccc(NN2C(=O)C(=Cc3ccc(-c4ccc(Cl)cc4)o3)SC2=S)c1 [Compound D18, 3-{5-[1-[5-(4-chloro-phenyl)-furan-2-yl]-methylidene]-4-oxo-2-thioxo-thiazolidin-3-ylamino}-benzoic acid] | < 10
6 | COc1ccc(-c2ccc(C=C3SC(=S)N(Nc4ccccc4C(=O)O)C3=O)o2)c(OC)c1 [Compound D19, 2-{5-[1-[5-(2,4-dimethoxy-phenyl)-furan-2-yl]-methylidene]-4-oxo-2-thioxo-thiazolidin-3-ylamino}-benzoic acid] | < 10
7 | O=C(O)c1ccc(NN2C(=O)C(=Cc3ccc(-c4ccccc4Cl)o3)SC2=S)cc1 [Compound D20, 4-{5-[5-(2-Chloro-phenyl)-furan-2-ylmethylene]-4-oxo-2-thioxo-thiazolidin-3-ylamino}-benzoic acid] | 11 to 40
8 | O=C(O)c1ccc(NN2C(=O)C(=Cc3ccc(-c4ccc(Cl)cc4)o3)SC2=S)cc1 [Compound D21, 4-{5-[5-(4-Chloro-phenyl)-furan-2-ylmethylene]-4-oxo-2-thioxo-thiazolidin-3-ylamino}-benzoic acid] | < 10
9 | O=C(O)c1ccccc1NN1C(=O)C(=Cc2ccc(-c3ccc4[nH]ccc4c3)o2)SC1=S [Compound D22, 2-{5-[5-(1H-Indol-5-yl)-furan-2-ylmethylene]-4-oxo-2-thioxo-thiazolidin-3-ylamino}-benzoic acid] | < 10
10 | Cc1cc(Cl)ccc1-c1ccc(C=C2SC(=S)N(Nc3ccccc3C(=O)O)C2=O)o1 [Compound D23, 2-{5-[1-[5-(4-chloro-2-methyl-phenyl)-furan-2-yl]-methylidene]-4-oxo-2-thioxo-thiazolidin-3-ylamino}-benzoic acid] | < 10
11 | Cc1cccc(C)c1-c1ccc(C=C2SC(=S)N(Nc3ccccc3C(=O)O)C2=O)o1 [Compound D24, 2-{5-[5-(2,6-Dimethyl-phenyl)-furan-2-ylmethylene]-4-oxo-2-thioxo-thiazolidin-3-ylamino}-benzoic acid] | < 10
12 | COc1cc(F)ccc1-c1ccc(C=C2SC(=S)N(Nc3ccccc3C(=O)O)C2=O)o1 [Compound D25, 2-{5-[1-[5-(4-fluoro-2-methoxy-phenyl)-furan-2-yl]-methylidene]-4-oxo-2-thioxo-thiazolidin-3-ylamino}-benzoic acid] | < 10
13 | COc1ccc(-c2ccc(C=C3SC(=S)N(Nc4ccccc4C(=O)O)C3=O)o2)cc1F [Compound D26, 2-{5-[1-[5-(3-fluoro-4-methoxy-phenyl)-furan-2-yl]-methylidene]-4-oxo-2-thioxo-thiazolidin-3-ylamino}-benzoic acid] | < 10
14 | O=C(O)c1ccccc1NN1C(=O)C(=Cc2ccc(-c3ccccc3OCc3ccccc3)o2)SC1=S [Compound D27, 2-{5-[1-[5-(2-benzyloxy-phenyl)-furan-2-yl]-methylidene]-4-oxo-2-thioxo-thiazolidin-3-ylamino}-benzoic acid] | 11 to 40

— US8338465B2, “Cyclic carboxylic acid rhodanine derivatives for the treatment and prevention of tuberculosis” (priority 2006, dated 2012)
